# Test results reported in ChEMBL document CHEMBL5380778, “Structure-Directed Discovery of Potent Soluble Epoxide Hydrolase Inhibitors for the Treatment of Inflammatory Diseases” (J Med Chem, 2023).
# Legend:
# [1] = target: T1, Bifunctional epoxide hydrolase 2 (Homo sapiens, UniProt P34913); test: Inhibition of recombinant human soluble epoxide hydrolase using PHOME as substrate assessed as 6-methoxynaphthaldehyde product formation preincubated with compound for 10 mins followed by substrate addition and measured by fluorescence based analysis
# T1 sequence (P34913 whole entry): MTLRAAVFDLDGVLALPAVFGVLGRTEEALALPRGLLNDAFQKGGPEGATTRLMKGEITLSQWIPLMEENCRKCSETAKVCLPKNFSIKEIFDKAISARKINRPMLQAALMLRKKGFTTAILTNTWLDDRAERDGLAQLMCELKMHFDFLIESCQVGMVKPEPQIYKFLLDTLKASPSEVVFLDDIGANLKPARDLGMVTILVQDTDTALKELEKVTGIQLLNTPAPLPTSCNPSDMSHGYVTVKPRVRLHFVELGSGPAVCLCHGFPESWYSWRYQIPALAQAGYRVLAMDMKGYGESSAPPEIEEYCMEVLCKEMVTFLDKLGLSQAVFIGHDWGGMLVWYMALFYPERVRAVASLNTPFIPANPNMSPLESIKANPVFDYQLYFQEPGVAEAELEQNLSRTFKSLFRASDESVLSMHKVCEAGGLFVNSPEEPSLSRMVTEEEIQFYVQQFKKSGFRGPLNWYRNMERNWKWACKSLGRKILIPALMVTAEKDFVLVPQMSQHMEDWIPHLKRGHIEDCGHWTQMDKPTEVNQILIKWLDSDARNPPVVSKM
# [2] = target: T2, Bifunctional epoxide hydrolase 2 (Mus musculus, UniProt P34914); test: Inhibition of recombinant mouse soluble epoxide hydrolase using PHOME as substrate assessed as 6-methoxynaphthaldehyde product formation preincubated with compound for 10 mins followed by substrate addition and measured by fluorescence based analysis
# T2 sequence (P34914 whole entry): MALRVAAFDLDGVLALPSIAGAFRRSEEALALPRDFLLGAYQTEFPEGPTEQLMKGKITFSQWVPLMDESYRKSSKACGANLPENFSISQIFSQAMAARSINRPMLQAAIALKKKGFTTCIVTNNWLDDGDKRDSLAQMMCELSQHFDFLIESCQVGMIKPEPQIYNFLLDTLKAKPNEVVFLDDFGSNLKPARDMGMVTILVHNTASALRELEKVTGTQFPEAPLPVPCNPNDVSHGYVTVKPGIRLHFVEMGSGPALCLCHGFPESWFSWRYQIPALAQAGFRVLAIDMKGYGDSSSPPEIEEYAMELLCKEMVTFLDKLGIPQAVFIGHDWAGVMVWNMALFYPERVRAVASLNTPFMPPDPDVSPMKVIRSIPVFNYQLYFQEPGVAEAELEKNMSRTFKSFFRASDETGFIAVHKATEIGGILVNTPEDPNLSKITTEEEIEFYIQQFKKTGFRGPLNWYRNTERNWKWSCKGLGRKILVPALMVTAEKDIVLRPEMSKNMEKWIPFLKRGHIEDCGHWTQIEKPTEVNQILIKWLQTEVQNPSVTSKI
SMILES,IC50 [1] [pM],IC50 [2] [pM]
CCC(=O)N1CCC(CC(=O)N2CCCN(C(=O)c3ccc(NC(=O)N[C@@]45C[C@@H]6C[C@@](C)(C[C@@](C)(C6)C4)C5)c(F)c3)CC2)CC1,900,390
CC(O)CNC(=O)C1CCN(C(=O)c2ccc(NC(=O)N[C@@]34C[C@@H]5C[C@@](C)(C[C@@](C)(C5)C3)C4)c(F)c2)CC1 (stereo partly drawn),4500,180
C[C@]12C[C@@H]3C[C@](C)(C1)C[C@@](NC(=O)Nc1ccc(C(=O)N4CCC(C(=O)NCCO)CC4)cc1F)(C3)C2,3430,260
C[C@]12C[C@@H]3C[C@](C)(C1)C[C@@](NC(=O)Nc1ccc(C(=O)NC4CCC(C(=O)NCCO)CC4)cc1F)(C3)C2 (stereo partly drawn),800,180
CCN(CC)C(=O)C1CCN(C(=O)c2ccc(NC(=O)N[C@@]34C[C@@H]5C[C@@](C)(C[C@@](C)(C5)C3)C4)c(F)c2)CC1,2200,530
C[C@]12C[C@@H]3C[C@](C)(C1)C[C@@](NC(=O)Nc1ccc(CN4CCCC(C(=O)NC(CO)(CO)CO)C4)cc1F)(C3)C2 (stereo partly drawn),140,320
C[C@]12C[C@@H]3C[C@](C)(C1)C[C@@](NC(=O)Nc1ccc(CN4CCCC(C(=O)N5CCCN(C(=O)C6CC6)CC5)C4)cc1F)(C3)C2 (stereo partly drawn),420,800
C=CC(=O)N1CCCN(C(=O)C2CCCN(Cc3ccc(NC(=O)N[C@@]45C[C@@H]6C[C@@](C)(C[C@@](C)(C6)C4)C5)c(F)c3)C2)CC1 (stereo partly drawn),420,1100
C[C@]12C[C@@H]3C[C@](C)(C1)C[C@](NC(=O)Nc1ccc(C(=O)N4CCCC(C(=O)NCCO)C4)cc1F)(C3)C2 (stereo partly drawn),350,150
CC(O)CNC(=O)C1CCCN(Cc2ccc(NC(=O)N[C@@]34C[C@@H]5C[C@@](C)(C[C@@](C)(C5)C3)C4)c(F)c2)C1 (stereo partly drawn),280,580
C[C@]12C[C@@H]3C[C@](C)(C1)C[C@@](NC(=O)Nc1ccc(CN4CCCC(C(=O)NCCO)C4)cc1F)(C3)C2 (stereo partly drawn),630,180
C[C@]12C[C@@H]3C[C@](C)(C1)C[C@@](NC(=O)Nc1ccc(CN4CCC(C(=O)N(CCO)CCO)CC4)cc1F)(C3)C2,6720,550
CC(C)(C)OC(=O)N1CCN(CCNC(=O)C2CCC(NC(=O)c3ccc(NC(=O)N[C@@]45C[C@@H]6C[C@@](C)(C[C@@](C)(C6)C4)C5)c(F)c3)CC2)CC1 (stereo partly drawn),183000,2000
C[C@]12C[C@@H]3C[C@](C)(C1)C[C@@](NC(=O)Nc1ccc(C(=O)N4CCCC(C(=O)O)C4)cc1F)(C3)C2 (stereo partly drawn),4600,1300
C[C@]12C[C@@H]3C[C@](C)(C1)C[C@@](NC(=O)Nc1ccc(CN4CCCC(C(=O)O)C4)cc1F)(C3)C2 (stereo partly drawn),2300,610
C[C@]12C[C@@H]3C[C@](C)(C1)C[C@@](NC(=O)Nc1ccc(CN4CCC(C(N)=O)CC4)cc1F)(C3)C2,1540,60
C[C@]12C[C@@H]3C[C@](C)(C1)C[C@@](NC(=O)Nc1ccc(CN4CCCC(C(=O)NC(CO)CO)C4)cc1F)(C3)C2 (stereo partly drawn),280,350
C[C@]12C[C@@H]3C[C@](C)(C1)C[C@@](NC(=O)Nc1ccc(C(=O)NC4CCC(C(N)=O)CC4)cc1F)(C3)C2 (stereo partly drawn),840,350
CC(CN(C)C)N1CCC(CC(=O)N2CCCN(C(=O)c3ccc(NC(=O)N[C@@]45C[C@@H]6C[C@@](C)(C[C@@](C)(C6)C4)C5)c(F)c3)CC2)CC1 (stereo partly drawn),19600,800
C[C@]12C[C@@H]3C[C@](C)(C1)C[C@@](NC(=O)Nc1ccc(C(=O)NC4CCC(C(=O)NC(CO)CO)CC4)cc1F)(C3)C2 (stereo partly drawn),910,550
C[C@]12C[C@@H]3C[C@](C)(C1)C[C@@](NC(=O)Nc1ccc(C(=O)N4CCCC(C(=O)N5CCN(CCO)CC5)C4)cc1F)(C3)C2 (stereo partly drawn),840,150
CC(O)CNC(=O)C1CCN(Cc2ccc(NC(=O)N[C@@]34C[C@@H]5C[C@@](C)(C[C@@](C)(C5)C3)C4)c(F)c2)CC1 (stereo partly drawn),6000,470

SMILES,IC50 [1] [pM],IC50 [2] [pM]
C[C@]12C[C@@H]3C[C@](C)(C1)C[C@@](NC(=O)Nc1ccc(C(=O)NC4CCC(C(=O)NC(CO)(CO)CO)CC4)cc1F)(C3)C2 (stereo partly drawn),350,120
C[C@]12C[C@@H]3C[C@](C)(C1)C[C@@](NC(=O)Nc1ccc(C(=O)NC4CCC(C(=O)N(CCO)CCO)CC4)cc1F)(C3)C2 (stereo partly drawn),2940,230
CCC(=O)N1CCC(CC(=O)N2CCCN(Cc3ccc(NC(=O)N[C@@]45C[C@@H]6C[C@@](C)(C[C@@](C)(C6)C4)C5)c(F)c3)CC2)CC1,330,70
C[C@]12C[C@@H]3C[C@](C)(C1)C[C@@](NC(=O)Nc1ccc(CN4CCCC(C(N)=O)C4)cc1F)(C3)C2 (stereo partly drawn),140,90
C[C@]12C[C@@H]3C[C@](C)(C1)C[C@@](NC(=O)Nc1ccc(CN4CCC(C(=O)NC(CO)CO)CC4)cc1F)(C3)C2,31600,2250
C[C@]12C[C@@H]3C[C@](C)(C1)C[C@@](NC(=O)Nc1ccc(CN4CCCC(C(=O)N(CCO)CCO)C4)cc1F)(C3)C2 (stereo partly drawn),280,290
CCC(=O)N1CCCN(C(=O)C2CCCN(C(=O)c3ccc(NC(=O)N[C@@]45C[C@@H]6C[C@@](C)(C[C@@](C)(C6)C4)C5)c(F)c3)C2)CC1 (stereo partly drawn),560,580
CC(=O)N1CCC(CC(=O)N2CCCN(Cc3ccc(NC(=O)N[C@@]45C[C@@H]6C[C@@](C)(C[C@@](C)(C6)C4)C5)c(F)c3)CC2)CC1,490,110
CC(O)CNC(=O)C1CCCN(C(=O)c2ccc(NC(=O)N[C@]34C[C@@H]5C[C@@](C)(C[C@@](C)(C5)C3)C4)c(F)c2)C1 (stereo partly drawn),280,230
CCN(CC)C(=O)C1CCCN(C(=O)c2ccc(NC(=O)N[C@]34C[C@@H]5C[C@@](C)(C[C@@](C)(C5)C3)C4)c(F)c2)C1 (stereo partly drawn),350,380
CCC(C)C(=O)N1CCC(CC(=O)N2CCCN(Cc3ccc(NC(=O)N[C@@]45C[C@@H]6C[C@@](C)(C[C@@](C)(C6)C4)C5)c(F)c3)CC2)CC1 (stereo partly drawn),770,160
CCC(C)C(=O)N1CCCN(C(=O)C2CCCN(C(=O)c3ccc(NC(=O)N[C@@]45C[C@@H]6C[C@@](C)(C[C@@](C)(C6)C4)C5)c(F)c3)C2)CC1 (stereo partly drawn),1400,900
CC(=O)N1CCCN(C(=O)C2CCCN(C(=O)c3ccc(NC(=O)N[C@@]45C[C@@H]6C[C@@](C)(C[C@@](C)(C6)C4)C5)c(F)c3)C2)CC1 (stereo partly drawn),600,260
C[C@]12C[C@@H]3C[C@](C)(C1)C[C@@](NC(=O)Nc1ccc(C(=O)NC4CCC(C(=O)N5CCC(CCO)CC5)CC4)cc1F)(C3)C2 (stereo partly drawn),16000,530
C[C@]12C[C@@H]3C[C@](C)(C1)C[C@@](NC(=O)Nc1ccc(CN4CCC(C(=O)NC(CO)(CO)CO)CC4)cc1F)(C3)C2,6510,120
C=C(C)C(=O)N1CCC(CC(=O)N2CCCN(C(=O)c3ccc(NC(=O)N[C@@]45C[C@@H]6C[C@@](C)(C[C@@](C)(C6)C4)C5)cc3)CC2)CC1,1000,130
CCN(CC)C(=O)C1CCCN(Cc2ccc(NC(=O)N[C@@]34C[C@@H]5C[C@@](C)(C[C@@](C)(C5)C3)C4)c(F)c2)C1 (stereo partly drawn),350,560
C[C@]12C[C@@H]3C[C@](C)(C1)C[C@@](NC(=O)Nc1ccc(CN4CCCC(C(=O)N5CCN(CCO)CC5)C4)cc1F)(C3)C2 (stereo partly drawn),980,550
CN(C)C(=O)C1CCCN(Cc2ccc(NC(=O)N[C@@]34C[C@@H]5C[C@@](C)(C[C@@](C)(C5)C3)C4)c(F)c2)C1 (stereo partly drawn),700,120
CCC(C)C(=O)N1CCCN(C(=O)C2CCCN(Cc3ccc(NC(=O)N[C@@]45C[C@@H]6C[C@@](C)(C[C@@](C)(C6)C4)C5)c(F)c3)C2)CC1 (stereo partly drawn),250,620
C=C(C)C(=O)N1CCCN(C(=O)C2CCCN(Cc3ccc(NC(=O)N[C@@]45C[C@@H]6C[C@@](C)(C[C@@](C)(C6)C4)C5)c(F)c3)C2)CC1 (stereo partly drawn),900,1300
CC(O)CNC(=O)C1CCC(NC(=O)c2ccc(NC(=O)N[C@@]34C[C@@H]5C[C@@](C)(C[C@@](C)(C5)C3)C4)c(F)c2)CC1 (stereo partly drawn),1540,440
